Converted amounts (≈) assume the structure as drawn.
Columns and labels:
[1] = system: Liberibacter crescens BT-1; assay: microbe, parasite or virus in culture; assay type: cell-based; settings: for inhibition of growth of L. crescens BT1: BM7 medium, 28° C.
[2] = system: Candidatus Liberibacter asiaticus (CLas); assay type: in vivo, Duncan grapefruit
[3] = system: CsPR1; assay type: in vivo, citrus; settings: foliar spray 10 ppm and 20 ppm; midribs at 0d, 2d, 2w; relative to CsUbi
[4] = system: CsPR2; assay type: in vivo, citrus; settings: foliar spray 10 ppm and 20 ppm; midribs at 0d, 2d, 2w; relative to CsUbi
[5] = assay type: physicochemical; settings: room temperature; 40-h culture of 0617-T307 in YME media
[6] = methanol and chloroform

Compound	inhibition of growth of L. crescens ([1]; 1 mg/L)	inhibition of growth of L. crescens ([1]; 2.5 mg/L, 16 days)	inhibition of growth of L. crescens BT1 ([1]; 10 mg/L)	inhibition of growth of L. crescens BT1 ([1]; 20 mg/L)	inhibition of growth of L. crescens BT1 ([1]; 40 mg/L)	MIC ([1]; Liberibacter crescens, BT1, read-out: minimal inhibitory concentration (MIC)) [µg/mL]	suppression of CLas ([2]; 10 mg/L sprayed on leaves of citrus Huanglongbing positive trees)	CLas titer in citrus leaves ([2]; RAA 10 mg/L foliar spray, HLB-positive Duncan grapefruit, untreated control 7.4×10^5)	expression of CsPR1 [3]	expression of CsPR2 [4]	present and stable in the culture [5]	solubility [6]
CSC1=C(C)C(=O)C(=O)NC1=O [RejuAgro A]	partial inhibition of growth	inhibition of growth	inhibition of growth	inhibition of growth	inhibition of growth	2.5 (≈ 13.5 µM)	effectively suppress	2.4×10^5 genome equivalent/g tissue DNA	triggered the expressions	triggered the expressions	at least 4 weeks	can be dissolved in methanol and chloroform
[H]/N=C(/N)N[C@H]1[C@H](O)[C@@H](O)[C@H](O[C@@H]2O[C@@H](C)[C@](O)(C=O)[C@H]2O[C@@H]2O[C@@H](CO)[C@H](O)[C@@H](O)[C@@H]2NC)[C@@H](N/C(N)=N\[H])[C@@H]1O [streptomycin, reference compound]	–	comparable	–	–	–	–	–	–	–	–	–	–

Source: patent US20230309565A1 (priority 2022, published 2023)
